Assay results as given in publication PMC9897788, “Design, synthesis and cytotoxic evaluation of novel bis-thiazole derivatives as preferential Pim1 kinase inhibitors with in vivo and in silico study” (Journal of Enzyme Inhibition and Medicinal Chemistry, 2023).

Experiments:
SK-MEL-2 = experiment: NCI 60 cell one-dose screening (SRB); format: cell-based; settings: Homo sapiens; SK-MEL-2, Melanoma; single dose 10 µM, 48 h; read-out: Percentage of cellular growth inhibition
In short: (§1)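 For suspension lines such as SR, settled cells were fixed with 16% final TCA; adherent lines used 10% TCA. All lines received 10 µM compound for 48 h at 37 °C before SRB staining, and percent growth inhibition relative to control was reported.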

SNB-19 = experiment: NCI 60 cell one-dose screening (SRB); format: cell-based; settings: Homo sapiens; SNB-19, CNS Cancer; single dose 10 µM, 48 h; read-out: Percentage of cellular growth inhibition
In short: as §1

LOX IMVI = experiment: NCI 60 cell one-dose screening (SRB); format: cell-based; settings: Homo sapiens, Melanoma, single dose 10 µM, 48 h, read-out: Percentage of cellular growth inhibition
In short: as §1

IGROV1 = experiment: NCI 60 cell one-dose screening (SRB); format: cell-based; settings: Homo sapiens, IGROV-1; IGROV1, Ovarian Cancer; single dose 10 µM, 48 h; read-out: Percentage of cellular growth inhibition
In short: as §1

SR = experiment: NCI 60 cell one-dose screening (SRB); format: cell-based; settings: Homo sapiens, Leukemia, single dose 10 µM, 48 h, read-out: Percentage of cellular growth inhibition
In short: as §1

COLO 205 = experiment: NCI 60 cell one-dose screening (SRB); format: cell-based; settings: Homo sapiens; COLO 205, Colon Cancer; single dose 10 µM, 48 h; read-out: Percentage of cellular growth inhibition
In short: as §1

NCI/ADR-RES = experiment: NCI 60 cell one-dose screening (SRB); format: cell-based; settings: Homo sapiens, Ovarian Cancer, single dose 10 µM, 48 h, read-out: Percentage of cellular growth inhibition
In short: as §1

OVCAR-5 = experiment: NCI 60 cell one-dose screening (SRB); format: cell-based; settings: Homo sapiens; OVCAR-5, Ovarian Cancer; single dose 10 µM, 48 h; read-out: Percentage of cellular growth inhibition
In short: as §1

MALME-3M = experiment: NCI 60 cell one-dose screening (SRB); format: cell-based; settings: Homo sapiens, Melanoma, single dose 10 µM, 48 h, read-out: Percentage of cellular growth inhibition
In short: as §1

M14 = experiment: NCI 60 cell one-dose screening (SRB); format: cell-based; settings: Homo sapiens; M14, Melanoma; single dose 10 µM, 48 h; read-out: Percentage of cellular growth inhibition
In short: as §1

OVCAR-3 = experiment: NCI 60 cell one-dose screening (SRB); format: cell-based; settings: Homo sapiens; OVCAR-3, Ovarian Cancer; single dose 10 µM, 48 h; read-out: Percentage of cellular growth inhibition
In short: as §1

NCI-H522 = experiment: NCI 60 cell one-dose screening (SRB); format: cell-based; settings: Homo sapiens; NCI-H522, Non-Small Cell Lung Cancer; single dose 10 µM, 48 h; read-out: Percentage of cellular growth inhibition
In short: as §1

SK-MEL-5 = experiment: NCI 60 cell one-dose screening (SRB); format: cell-based; settings: Homo sapiens; SK-MEL-5, Melanoma; single dose 10 µM, 48 h; read-out: Percentage of cellular growth inhibition
In short: as §1

HOP-92 = experiment: NCI 60 cell one-dose screening (SRB); format: cell-based; settings: Homo sapiens, HOP-92, 48 h, HOP-92, Non-Small Cell Lung Cancer, single dose 10 µM, read-out: Percentage of cellular growth inhibition
In short: as §1

T-47D = experiment: NCI 60 cell one-dose screening (SRB); format: cell-based; settings: Homo sapiens, T47D, 48 h, Breast Cancer, single dose 10 µM, read-out: Percentage of cellular growth inhibition
In short: as §1

DU-145 = experiment: NCI 60 cell one-dose screening (SRB); format: cell-based; settings: Homo sapiens; DU-145, Prostate Cancer; single dose 10 µM, 48 h; read-out: Percentage of cellular growth inhibition
In short: as §1

ACHN = experiment: NCI 60 cell one-dose screening (SRB); format: cell-based; settings: Homo sapiens, Renal Cancer, single dose 10 µM, 48 h, read-out: Percentage of cellular growth inhibition
In short: as §1

[1] = test system: Breast T47D cancer cell line; experiment: In vitro inhibition concentration of breast T47D cancer cell line; format: cell-based; settings: Homo sapiens
Experimental: Cells were seeded and treated with a range of inhibitors concentration 39–10,000 nM after 24 h relative to DMSO. […]

SMILES	melting point	inhibition at 10 µM (SK-MEL-2)	inhibition at 10 µM (SNB-19)	inhibition at 10 µM (LOX IMVI)	inhibition at 10 µM (IGROV1)	inhibition at 10 µM (SR)	inhibition at 10 µM (COLO 205)	inhibition at 10 µM (NCI/ADR-RES)	inhibition at 10 µM (OVCAR-5)	inhibition at 10 µM (MALME-3M)	inhibition at 10 µM (M14)	inhibition at 10 µM (OVCAR-3)	inhibition at 10 µM (NCI-H522)	inhibition at 10 µM (SK-MEL-5)	inhibition at 10 µM (HOP-92)	inhibition at 10 µM (T-47D)	inhibition at 10 µM (DU-145)	inhibition at 10 µM (ACHN)	IC50 ([1]; 48 h)	IC50 ([1]; 96 h)
Clc1ccc(-c2cs/c(=N\c3ccccc3)n2-c2cccc(-n3c(-c4ccc(Cl)cc4)cs/c3=N\c3ccccc3)c2)cc1 [8c, N,N’-(3,3’-(1,3-phenylene)bis(4–(4-chlorophenyl)thiazole-3(3H)-yl-2(3H)-ylidene))dianiline]	120 to 121 °C	-9.6%	3.8%	50.6%	-0.4%	12.1%	17.2%	0.5%	-2.6%	6.7%	-10.7%	-6.6%	42.2%	3.1%	2.4%	8.9%	19.2%	-1.5%	–	–
Fc1ccc(-c2csc(Nc3cccc(Nc4nc(-c5ccc(F)cc5)cs4)c3)n2)cc1 [6b, N^1,N^3-bis(4–(4-fluorophenyl)thiazol-2-yl)benzene-1,3-diamine]	80 to 83 °C	65.3%	29.8%	60.7%	58.2%	48.6%	24.3%	36.3%	34.5%	17%	33.2%	42.5%	93.8%	38.8%	60.8%	–	32.3%	48.2%	5.92 µM	1.61 µM
c1ccc(/N=c2\scc(-c3ccccc3)n2-c2cccc(-n3c(-c4ccccc4)cs/c3=N\c3ccccc3)c2)cc1 [8a, N,N’-(3,3’-(1,3-phenylene)bis(4-phenylthiazole-3(3H)-yl-2(3H)-ylidene))dianiline]	110 to 111 °C	12.6%	-5.9%	22.6%	-6.1%	6.1%	-21.3%	-5%	-2.9%	3%	-14.3%	-3.6%	12.2%	4%	14.5%	10.2%	-3.2%	3%	–	–
